Measured values as given in US9499535B2, “Kinase inhibitors” (ORIGENIS GMBH, priority 2011, dated 2016).

Columns and labels:
MYLK = MYLK (Homo sapiens, UniProt Q15746); assay: MYLK assay (LanthaScreen Eu Kinase Binding Assay); settings: 5 nM MYLK, 30 nM tracer 236, RT 1 h; read-out: MYLK Activites: IC50
Procedure, shortened: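 TR-FRET tracer-displacement binding: 5 nM MYLK with 2 nM Eu-anti-GST antibody and 30 nM tracer 236 in kinase buffer A, 1 h at RT. The 665/615 nm emission ratio was plotted against inhibitor concentration; IC50 from variable-slope sigmoidal fit.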

SYK kinase = target: T1, SYK kinase (Homo sapiens, UniProt P43405); assay: SYK assay (OMNIA Kinase Assay, Invitrogen); format: biochemical; settings: apparent Ki calculated from the IC50 using the Cheng-Prusoff equation; 1 mM ATP, 10 μM Peptide Substrate; read-out: SYK Activities: Ki
T1 construct: purchased Invitrogen, Carlsbad
Procedure, shortened: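 Reaction velocities were measured from kinetic fluorescence reads (360/485 nm, every 30 s over 30 min) of Mg2+-chelated SOX signal. Conditions were 1 mM ATP, 10 μM Omnia Tyr 7 peptide and 0.2 mM DTT at 30° C. Sigmoidal IC50 fits were converted to apparent Ki using Cheng-Prusoff.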

LRRK2 = LRRK2 (Homo sapiens, UniProt Q5S007); assay: LRRK2 assay (LanthaScreen Eu Kinase Binding Assay); settings: 5 nM LRRK2, 10 nM tracer 236, RT 1 h; read-out: LRRK2 Activites: IC50
Chain of LRRK2 (Q5S007 970-2527 limits assumed): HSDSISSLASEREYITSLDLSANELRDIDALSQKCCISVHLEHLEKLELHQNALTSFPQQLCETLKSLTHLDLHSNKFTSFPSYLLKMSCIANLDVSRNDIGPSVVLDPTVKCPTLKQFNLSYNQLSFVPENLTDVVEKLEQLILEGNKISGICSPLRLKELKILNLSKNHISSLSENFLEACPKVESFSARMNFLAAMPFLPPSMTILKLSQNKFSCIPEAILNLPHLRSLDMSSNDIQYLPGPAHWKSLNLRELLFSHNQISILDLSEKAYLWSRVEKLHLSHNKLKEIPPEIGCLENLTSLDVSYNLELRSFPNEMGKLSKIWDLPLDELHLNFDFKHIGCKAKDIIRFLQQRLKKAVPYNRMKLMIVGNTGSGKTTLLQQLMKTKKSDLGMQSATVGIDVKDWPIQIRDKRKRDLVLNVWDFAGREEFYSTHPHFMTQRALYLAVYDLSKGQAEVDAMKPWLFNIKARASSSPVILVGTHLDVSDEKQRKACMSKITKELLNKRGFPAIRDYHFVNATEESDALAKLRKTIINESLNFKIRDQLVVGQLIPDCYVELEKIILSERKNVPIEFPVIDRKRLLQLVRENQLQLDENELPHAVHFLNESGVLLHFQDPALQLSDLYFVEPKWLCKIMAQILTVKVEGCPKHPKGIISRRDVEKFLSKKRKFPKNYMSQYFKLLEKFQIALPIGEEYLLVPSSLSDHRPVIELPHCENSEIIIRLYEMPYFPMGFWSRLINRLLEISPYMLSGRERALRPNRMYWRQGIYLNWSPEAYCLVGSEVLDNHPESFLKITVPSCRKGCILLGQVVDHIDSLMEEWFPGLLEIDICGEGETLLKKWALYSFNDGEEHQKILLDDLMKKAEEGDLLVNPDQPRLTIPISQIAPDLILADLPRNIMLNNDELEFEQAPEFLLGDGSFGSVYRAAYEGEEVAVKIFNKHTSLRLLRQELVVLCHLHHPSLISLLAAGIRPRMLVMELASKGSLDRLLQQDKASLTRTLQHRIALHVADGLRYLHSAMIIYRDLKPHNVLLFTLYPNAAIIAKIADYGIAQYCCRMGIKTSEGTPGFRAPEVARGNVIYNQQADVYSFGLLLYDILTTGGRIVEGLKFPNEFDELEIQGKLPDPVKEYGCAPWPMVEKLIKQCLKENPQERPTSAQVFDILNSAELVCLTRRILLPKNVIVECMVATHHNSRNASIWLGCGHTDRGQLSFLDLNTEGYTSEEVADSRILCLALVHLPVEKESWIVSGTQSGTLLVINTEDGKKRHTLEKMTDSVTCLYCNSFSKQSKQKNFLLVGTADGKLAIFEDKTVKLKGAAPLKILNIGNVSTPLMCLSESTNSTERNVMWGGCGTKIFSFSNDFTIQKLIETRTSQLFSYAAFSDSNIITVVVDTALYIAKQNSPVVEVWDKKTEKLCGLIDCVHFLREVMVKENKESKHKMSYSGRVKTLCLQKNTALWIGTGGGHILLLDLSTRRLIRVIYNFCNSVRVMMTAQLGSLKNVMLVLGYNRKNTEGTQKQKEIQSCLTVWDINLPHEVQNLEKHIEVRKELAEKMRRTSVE
Procedure, shortened: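 IC50 was derived from a sigmoidal dose-response fit with variable slope, plotting emission ratio against inhibitor concentration. The read-out is loss of FRET between a europium-labelled anti-tag antibody on the kinase and a tracer displaced by inhibitor.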

Chain of MYLK (Q15746 whole entry): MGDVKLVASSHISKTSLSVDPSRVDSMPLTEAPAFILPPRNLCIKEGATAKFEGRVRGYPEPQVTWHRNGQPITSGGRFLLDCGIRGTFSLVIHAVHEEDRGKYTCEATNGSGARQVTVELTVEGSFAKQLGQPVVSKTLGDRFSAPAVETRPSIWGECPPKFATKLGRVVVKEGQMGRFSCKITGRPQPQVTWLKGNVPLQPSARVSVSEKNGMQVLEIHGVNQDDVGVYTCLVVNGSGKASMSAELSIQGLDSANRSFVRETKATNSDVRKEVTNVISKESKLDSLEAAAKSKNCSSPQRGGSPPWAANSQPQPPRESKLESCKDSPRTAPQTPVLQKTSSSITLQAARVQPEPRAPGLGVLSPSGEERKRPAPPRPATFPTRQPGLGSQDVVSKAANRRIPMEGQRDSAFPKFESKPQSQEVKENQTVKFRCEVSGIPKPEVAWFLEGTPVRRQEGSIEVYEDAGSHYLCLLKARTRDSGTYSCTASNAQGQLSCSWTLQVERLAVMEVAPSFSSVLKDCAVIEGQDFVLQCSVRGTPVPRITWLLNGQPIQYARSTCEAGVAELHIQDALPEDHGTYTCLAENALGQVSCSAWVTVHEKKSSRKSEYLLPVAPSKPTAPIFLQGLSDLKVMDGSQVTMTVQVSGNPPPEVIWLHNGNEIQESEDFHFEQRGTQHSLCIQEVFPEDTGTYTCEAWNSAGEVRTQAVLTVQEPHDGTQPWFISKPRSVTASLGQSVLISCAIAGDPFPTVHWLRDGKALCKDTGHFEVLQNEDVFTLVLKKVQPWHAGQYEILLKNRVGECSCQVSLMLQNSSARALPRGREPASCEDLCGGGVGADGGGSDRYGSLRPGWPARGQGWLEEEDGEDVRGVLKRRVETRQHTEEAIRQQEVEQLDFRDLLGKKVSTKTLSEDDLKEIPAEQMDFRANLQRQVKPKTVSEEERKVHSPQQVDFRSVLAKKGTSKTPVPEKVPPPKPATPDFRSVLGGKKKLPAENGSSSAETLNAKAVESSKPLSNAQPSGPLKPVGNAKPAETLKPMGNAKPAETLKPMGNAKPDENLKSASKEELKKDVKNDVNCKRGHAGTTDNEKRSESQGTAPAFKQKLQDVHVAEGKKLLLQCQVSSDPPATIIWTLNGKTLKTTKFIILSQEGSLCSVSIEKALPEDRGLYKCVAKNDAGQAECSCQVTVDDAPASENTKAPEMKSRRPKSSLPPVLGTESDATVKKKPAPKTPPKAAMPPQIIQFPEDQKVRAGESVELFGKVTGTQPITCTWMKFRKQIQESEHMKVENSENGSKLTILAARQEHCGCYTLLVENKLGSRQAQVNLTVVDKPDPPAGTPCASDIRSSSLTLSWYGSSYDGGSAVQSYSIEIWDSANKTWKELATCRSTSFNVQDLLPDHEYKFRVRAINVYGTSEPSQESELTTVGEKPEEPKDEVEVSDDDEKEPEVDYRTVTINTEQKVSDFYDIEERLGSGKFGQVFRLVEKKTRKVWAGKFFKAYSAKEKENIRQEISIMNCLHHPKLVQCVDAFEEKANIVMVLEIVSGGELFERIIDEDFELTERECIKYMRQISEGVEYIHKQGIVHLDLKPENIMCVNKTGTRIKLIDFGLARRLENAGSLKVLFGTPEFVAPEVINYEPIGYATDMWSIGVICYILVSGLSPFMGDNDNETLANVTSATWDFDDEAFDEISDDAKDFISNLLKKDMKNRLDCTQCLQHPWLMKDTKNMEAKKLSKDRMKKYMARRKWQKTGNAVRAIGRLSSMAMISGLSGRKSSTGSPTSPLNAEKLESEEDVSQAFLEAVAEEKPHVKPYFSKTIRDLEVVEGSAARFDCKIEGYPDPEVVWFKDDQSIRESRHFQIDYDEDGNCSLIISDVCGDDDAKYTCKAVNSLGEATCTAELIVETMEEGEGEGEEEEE

Row | IC50 (MYLK) | Ki (SYK kinase) | IC50 (LRRK2) | Compound
1 | < 5 µM | < 0.01 µM | 0.1 to 1 µM | COc1ccc2nc(Nc3ccc(N4CCNCC4)cc3)c3n[nH]cc3c2c1 [Example #184, (8-Methoxy-2H-pyrazolo[3,4-c]quinolin-4-yl)-(4-piperazin-1-yl-phenyl)-amine]
2 | < 5 µM | 0.01 to 0.1 µM | 0.01 to 0.1 µM | COc1cc2nc(Nc3cc(C4CC4)[nH]n3)c3n[nH]cc3c2cc1OC [Example #150, (5-Cyclopropyl-1H-pyrazol-3-yl)-(7,8-dimethoxy-2H-pyrazolo[3,4-c]quinolin-4-yl)-amine]
3 | < 5 µM | < 0.01 µM | 0.1 to 1 µM | COc1ccc2c(c1)nc(Nc1ccc3c(c1)NC(=O)CCC3)c1n[nH]cc12 [Example #257, 8-((7-methoxy-2H-pyrazolo[3,4-c]quinolin-4-yl)amino)-4,5-dihydro-1H-benzo[b]azepin-2(3H)-one]
4 | < 5 µM | 0.01 to 0.1 µM | 0.1 to 1 µM | COc1ccc2nc(Nc3ccc4[nH]ncc4c3)c3n[nH]cc3c2c1 [Example #38, (1H-Indazol-5-yl)-(8-methoxy-2H-pyrazolo[3,4-c]quinolin-4-yl)-amine]
5 | < 5 µM | 0.01 to 0.1 µM | 0.01 to 0.1 µM | COc1ccc2nc(Nc3ccc(CN4CCCC4)cc3)c3n[nH]cc3c2c1 [Example #234, (8-Methoxy-2H-pyrazolo[3,4-c]quinolin-4-yl)-(4-pyrrolidin-1-ylmethyl-phenyl)-amine]
6 | < 5 µM | 0.1 to 1 µM | 0.1 to 1 µM | COc1ccc2nc(Nc3ccc4c(c3)ncn4C)c3n[nH]cc3c2c1 [Example #126, (8-Methoxy-2H-pyrazolo[3,4-c]quinolin-4-yl)-(1-methyl-1H-benzoimidazol-5-yl)-amine]
7 | < 5 µM | 0.01 to 0.1 µM | 0.01 to 0.1 µM | COc1ccc2nc(Nc3ccc(C(=O)N4CCN(C)CC4)cc3)c3n[nH]cc3c2c1 [Example #235, (4-((8-methoxy-2H-pyrazolo[3,4-c]quinolin-4-yl)amino)phenyl)(4-methylpiperazin-1-yl)methanone]
8 | < 5 µM | 0.1 to 1 µM | 0.1 to 1 µM | COc1ccc2nc(Nc3ccc(-c4nnn[nH]4)cc3)c3[nH]ncc3c2c1 [Example #98, (8-Methoxy-3H-pyrazolo[3,4-c]quinolin-4-yl)-[4-(1H-tetrazol-5-yl)-phenyl]-amine]
9 | < 5 µM | 0.01 to 0.1 µM | 0.1 to 1 µM | O=C1COc2ccc(Nc3nc4ccc(F)cc4c4cn[nH]c34)cc2N1 [Example #324, 6-((8-fluoro-3H-pyrazolo[3,4-c]quinolin-4-yl)amino)-2H-benzo[b][1,4]oxazin-3(4H)-one]
10 | < 5 µM | < 0.01 µM | 0.01 to 0.1 µM | COc1ccc2nc(Nc3ccc(N4CCN(C(C)=O)CC4)cc3)c3n[nH]cc3c2c1 [Example #164, 1-{4-[4-(8-Methoxy-2H-pyrazolo[3,4-c]quinolin-4-ylamino)-phenyl]-piperazin-1-yl}-ethanone]
11 | < 5 µM | 0.01 to 0.1 µM | 0.1 to 1 µM | COc1cccc2nc(Nc3ccc(N4CCN(C5CC5)CC4)cc3)c3n[nH]cc3c12 [Example #243, [4-(4-cyclopropyl-piperazin-1-yl)-phenyl]-(9-methoxy-2H-pyrazolo[3,4-c]quinolin-4-yl)-amine]
12 | < 5 µM | 0.01 to 0.1 µM | 0.01 to 0.1 µM | COc1ccc2nc(Nc3ccc(N4CCN(CC(=O)O)CC4)cc3)c3n[nH]cc3c2c1 [Example #277, 2-(4-(4-((8-methoxy-2H-pyrazolo[3,4-c]quinolin-4-yl)amino)phenyl)piperazin-1-yl)acetic-acid]
13 | < 5 µM | < 0.01 µM | 0.1 to 1 µM | CCN(CC)CCNC(=O)c1ccc(Nc2nc3ccc(OC)cc3c3c[nH]nc23)cc1 [Example #222, N-(2-Diethylamino-ethyl)-4-(8-methoxy-2H-pyrazolo[3,4-c]quinolin-4-ylamino)-benzamide]
14 | < 5 µM | 0.01 to 0.1 µM | 0.1 to 1 µM | COc1ccc2nc(Nc3ccc(OC4CCN(C)CC4)nc3)c3n[nH]cc3c2c1 [Example #255, (8-Methoxy-2H-pyrazolo[3,4-c]quinolin-4-yl)-[6-(1-methyl-piperidin-4-yloxy)-pyridin-3-yl]-amine]
15 | < 5 µM | 0.01 to 0.1 µM | 0.1 to 1 µM | COc1ccc(Nc2nc3cc(OC)c(OC)cc3c3c[nH]nc23)cc1O [Example #152, 5-(7,8-Dimethoxy-2H-pyrazolo[3,4-c]quinolin-4-ylamino)-2-methoxy-phenol]
16 | < 5 µM | < 0.01 µM | 0.01 to 0.1 µM | COc1cccc2c1nc(Nc1cc(C3CC3)[nH]n1)c1n[nH]cc12 [Example #169, (5-Cyclopropyl-1H-pyrazol-3-yl)-(6-methoxy-2H-pyrazolo[3,4-c]quinolin-4-yl)-amine]
17 | < 5 µM | 0.01 to 0.1 µM | 0.01 to 0.1 µM | COc1ccc2nc(Nc3ccc(S(N)(=O)=O)cc3)c3n[nH]cc3c2c1 [Example #132, 4-(8-Methoxy-2H-pyrazolo[3,4-c]quinolin-4-ylamino)-benzenesulfonamide]
18 | < 5 µM | 0.01 to 0.1 µM | 0.01 to 0.1 µM | CCN1CCN(c2ccc(Nc3nc4ccc(OC)cc4c4c[nH]nc34)cc2F)CC1 [Example #240, [4-(4-ethyl-piperazin-1-yl)-3-fluorophenyl]-(8-methoxy-2H-pyrazolo[3,4-c]quinolin-4-yl)-amine]
19 | < 5 µM | 0.01 to 0.1 µM | 0.01 to 0.1 µM | COc1ccc2nc(Nc3ccc(N4CCN(C)CC4)nc3)c3n[nH]cc3c2c1 [Example #165, (8-Methoxy-2H-pyrazolo[3,4-c]quinolin-4-yl)-[6-(4-methyl-piperazin-1-yl)-pyridin-3-yl]-amine]
20 | < 5 µM | < 0.01 µM | 0.1 to 1 µM | COc1ccc2nc(Nc3ccc(N4CCN(CC(C)C)CC4)cc3)c3n[nH]cc3c2c1 [Example #270, [4-(4-Isobutyl-piperazin-1-yl)-phenyl]-(8-methoxy-2H-pyrazolo[3,4-c]quinolin-4-yl)-amine]
21 | < 5 µM | 0.01 to 0.1 µM | 0.01 to 0.1 µM | COc1cccc2nc(Nc3ccc4cn[nH]c4c3)c3n[nH]cc3c12 [Example #203, (1H-Indazol-6-yl)-(9-methoxy-2H-pyrazolo[3,4-c]quinolin-4-yl)-amine]
22 | < 5 µM | 0.01 to 0.1 µM | 0.1 to 1 µM | COc1cc2nc(Nc3ccc4cn[nH]c4c3)c3n[nH]cc3c2cc1OC [Example #136, (7,8-Dimethoxy-2H-pyrazolo[3,4-c]quinolin-4-yl)-(1H-indazol-6-yl)-amine]
23 | < 5 µM | 0.1 to 1 µM | 0.1 to 1 µM | COc1ccc2nc(Nc3cnc(N4CCN(C)CC4)nc3)c3n[nH]cc3c2c1 [Example #223, (8-Methoxy-2H-pyrazolo[3,4-c]quinolin-4-yl)-[2-(4-methyl-piperazin-1-yl)-pyrimidin-5-yl]-amine]
24 | < 5 µM | 0.01 to 0.1 µM | 0.1 to 1 µM | COc1ccc2nc(Nc3ccc(CN(C)C)cc3)c3n[nH]cc3c2c1 [Example #185, (4-Dimethylaminomethyl-phenyl)-(8-methoxy-2H-pyrazolo[3,4-c]quinolin-4-yl)-amine]
25 | < 5 µM | 0.1 to 1 µM | 0.1 to 1 µM | O=C(O)c1cccc(Nc2nc3ccc(O)cc3c3c[nH]nc23)c1 [Example #296, 3-((8-hydroxy-2H-pyrazolo[3,4-c]quinolin-4-yl)amino)benzoic acid]
